{"source": "patent US9624161B2", "about": "(priority 2009, dated 2017)", "key": {"rat ER-β": {"biological_target": "T1, rat ER-β (Rattus norvegicus, UniProt Q62986)", "T1 construct": "expressed in transfected cells; host or cells: HEK-293", "T1 sequence (Q62986 whole entry)": "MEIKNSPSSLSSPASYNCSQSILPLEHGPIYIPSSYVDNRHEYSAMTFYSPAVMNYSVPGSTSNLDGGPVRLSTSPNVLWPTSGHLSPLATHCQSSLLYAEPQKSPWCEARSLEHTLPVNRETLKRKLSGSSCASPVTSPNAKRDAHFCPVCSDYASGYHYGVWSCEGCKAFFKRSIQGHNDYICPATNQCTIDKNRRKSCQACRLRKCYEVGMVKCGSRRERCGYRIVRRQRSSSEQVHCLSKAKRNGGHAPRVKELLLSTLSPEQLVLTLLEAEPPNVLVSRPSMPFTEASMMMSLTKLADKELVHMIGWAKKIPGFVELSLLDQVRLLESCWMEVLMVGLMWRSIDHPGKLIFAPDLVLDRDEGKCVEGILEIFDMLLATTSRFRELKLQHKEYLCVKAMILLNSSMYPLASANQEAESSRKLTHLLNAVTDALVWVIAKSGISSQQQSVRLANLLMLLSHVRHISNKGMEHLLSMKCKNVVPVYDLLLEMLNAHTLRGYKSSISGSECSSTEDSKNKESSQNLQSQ", "experiment": "Transactivation assay (agonist and antagonist modes), HEK-293 cells, ERE-LUC", "format": "cell-based"}, "PPAR-α": {"biological_target": "T2, PPAR-α (Homo sapiens, UniProt Q07869)", "T2 construct": "expressed in transfected cells", "T2 sequence (Q07869 whole entry, canonical isoform)": "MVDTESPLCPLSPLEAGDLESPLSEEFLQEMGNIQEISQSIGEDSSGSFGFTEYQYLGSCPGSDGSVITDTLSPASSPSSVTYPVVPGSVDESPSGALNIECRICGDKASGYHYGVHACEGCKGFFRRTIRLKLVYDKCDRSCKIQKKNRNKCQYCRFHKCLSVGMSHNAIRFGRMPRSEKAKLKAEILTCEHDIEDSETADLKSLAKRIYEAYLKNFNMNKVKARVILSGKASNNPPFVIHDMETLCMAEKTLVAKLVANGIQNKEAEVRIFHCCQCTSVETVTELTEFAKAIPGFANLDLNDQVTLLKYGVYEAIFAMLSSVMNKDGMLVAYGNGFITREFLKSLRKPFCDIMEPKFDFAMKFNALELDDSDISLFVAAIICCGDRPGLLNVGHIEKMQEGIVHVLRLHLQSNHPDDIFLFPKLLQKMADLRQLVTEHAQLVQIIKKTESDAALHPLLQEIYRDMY", "experiment": "Nuclear receptor cross-reactivity transcriptional activation assay", "format": "cell-based", "conditions": "agonist and antagonist modes", "description": "(§1) Compound IV was screened for cross-reactivity against rat isoforms of glucocorticoid receptor (GR), mineralocorticoids receptor (MR), progesterone receptor (PR), androgen receptor (AR) and human isoforms of farnesoid X receptor (FXR), liver X receptor (LXR), peroxisome proliferator-activated receptors (PPAR-α and PPAR-γ), and retinoid X receptor (RXR-α) in both agonist and antagonist modes in transcriptional activation assays."}, "PPAR-γ": {"biological_target": "T3, PPAR-γ (Homo sapiens, UniProt P37231)", "T3 construct": "expressed in transfected cells", "T3 sequence (P37231 whole entry)": "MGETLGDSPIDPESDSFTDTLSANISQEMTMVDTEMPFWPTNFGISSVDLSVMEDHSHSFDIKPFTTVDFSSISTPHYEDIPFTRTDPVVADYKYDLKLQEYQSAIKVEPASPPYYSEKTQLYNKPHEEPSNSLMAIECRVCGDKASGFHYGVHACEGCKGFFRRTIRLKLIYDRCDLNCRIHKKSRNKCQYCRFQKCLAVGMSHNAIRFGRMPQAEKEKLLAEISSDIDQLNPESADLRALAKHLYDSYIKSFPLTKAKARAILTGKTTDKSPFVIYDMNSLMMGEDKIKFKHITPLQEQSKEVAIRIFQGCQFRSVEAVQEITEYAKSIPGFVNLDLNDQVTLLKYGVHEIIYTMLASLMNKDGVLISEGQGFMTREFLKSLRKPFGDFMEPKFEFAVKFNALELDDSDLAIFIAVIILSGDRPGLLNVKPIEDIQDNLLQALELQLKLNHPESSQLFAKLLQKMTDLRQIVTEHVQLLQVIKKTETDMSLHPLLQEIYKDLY", "experiment": "Nuclear receptor cross-reactivity transcriptional activation assay", "format": "cell-based", "conditions": "agonist and antagonist modes", "description": "as §1"}, "[1]": {"biological_target": "T4, retinoid X receptor (RXR-α) (Homo sapiens, UniProt P19793)", "T4 construct": "expressed in transfected cells", "T4 sequence (P19793 whole entry)": "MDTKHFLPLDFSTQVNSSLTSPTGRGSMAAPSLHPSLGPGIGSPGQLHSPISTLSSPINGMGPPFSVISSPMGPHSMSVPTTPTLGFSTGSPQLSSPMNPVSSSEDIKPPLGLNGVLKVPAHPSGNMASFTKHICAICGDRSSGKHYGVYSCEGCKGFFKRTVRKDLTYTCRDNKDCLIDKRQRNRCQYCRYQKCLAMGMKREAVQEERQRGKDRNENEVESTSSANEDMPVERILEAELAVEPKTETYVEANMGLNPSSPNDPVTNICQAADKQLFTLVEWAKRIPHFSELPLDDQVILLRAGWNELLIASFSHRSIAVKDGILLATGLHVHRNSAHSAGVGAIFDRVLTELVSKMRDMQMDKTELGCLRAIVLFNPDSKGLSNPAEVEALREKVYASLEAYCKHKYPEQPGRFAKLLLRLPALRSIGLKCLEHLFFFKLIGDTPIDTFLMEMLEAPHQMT", "experiment": "Nuclear receptor cross-reactivity transcriptional activation assay", "format": "cell-based", "conditions": "agonist and antagonist modes", "description": "as §1"}, "[2]": {"tested_on": "treatment naïve male Cynomolgus monkeys", "experiment": "Suppression and recovery of androgen levels in intact male monkeys, 30 mg/kg oral for 7 days", "format": "in vivo, Cynomolgus monkey", "design": "Circulating androgen level (mean±SEM) / Circulating androgen level after recovery: unit not given here", "description": "The effect of Compound IV on suppression and recovery of testosterone levels in intact male monkeys was evaluated in conjunction with an oral pharmacokinetic study. Three treatment naïve male Cynomolgus monkeys (2 to 3 years old) were administered Compound IV at 30 mg/kg daily by oral gavage for 7 consecutive days. Blood samples were collected and divided into serum and plasma for testosterone and Compound IV quantitative measurements, respectively."}, "[3]": {"tested_on": "morphine dependent rat model", "experiment": "Morphine dependent rat model of hot flashes (tail skin temperature)", "format": "in vivo", "conditions": "5, 10, 15 and 30 mg/kg (FIG. 13)", "description": "In addition to the similarities to the human condition, this experimental animal model has a short turn around time which makes it a useful high throughput screening tool for identifying compounds that can alleviate vasomotor symptoms using the tail skin temperature (TST). TST probes TA-40 (Data Sciences International, MN) were taped to the base of the tails and baseline temperatures were obtained for 15 minutes. After 15 minutes the animals were treated with naloxone (1 mg/kg, SQ) to reverse the effects of the morphine. Tail skin temperature (TST) was measured for one hour post-naloxone treatment with a sampling frequency of 5 secs throughout the course of the experiment. Following the data acquisition, the moving average of the temperature recorded every 60 seconds for each animal was calculated and further analyzed. Baseline temperature was computed as the average temperature acquired over the 15 minutes preceding naloxone administration. The area under the curve (AUC) was calculated by subtracting all the values post-naloxone administration from the baseline using a linear trapezoid method."}, "[4]": {"experiment": "Oral bioavailability in dogs", "format": "in vivo", "conditions": "dog, plasma, depending on the formulation and route of administration", "description": "Formulations using polyethylene glycol 300 (PEG300) generally produced higher exposures than microemulsions prepared in Tween 80 diluted in deionized water. […] Importantly, in dogs the exposure in the male 30 mg/kg PEG300 oral dose group exceeded the exposure necessary to produce the maximal effect on prostate reduction in the rat model of LH suppression."}, "rats": {"tested_on": "rats", "experiment": "Gastrointestinal effects after oral administration in rats", "format": "in vivo, rat"}, "male or female dogs": {"tested_on": "male or female dogs", "experiment": "Single and repeated oral dose toxicity in dogs (up to 28 days)", "format": "in vivo, dog", "description": "Compound IV was well-tolerated by rats and dogs after single and repeated oral administration (up to 28 days)."}, "[5]": {"tested_on": "men with castration resistant prostate cancer (CRPC)", "experiment": "Study 3: Compound IV 2000 mg daily in men with castration resistant prostate cancer maintained on ADT", "format": "in vivo, human", "conditions": "for Percentage of treated patients already on ADT (ITT population) below the free T cutoff of 0.5 pg/ml: Study 3, CRPC", "description": "Men with CRPC (n=9) received 2000 mg Compound IV daily. The primary endpoint of the study was the proportion of subjects with a greater than or equal to 50% reduction in prostate specific antigen (PSA) from Day 1. Secondary endpoints included serum free T and SHBG which together with PSA were assessed at days 1, 15, 30, 60 and 90. Serum concentrations of total T, free T, SHBG and PSA were determined at baseline and during treatment.\nA study (Study 3) was conducted to assess the effects of Compound IV on serum PSA progression in men with castration resistant prostate cancer who have been effectively treated with ADT and at the time of enrollment into this study have shown serum PSA progression. This study consisted of one dose arm with 9 subjects.\nThe subjects were 12 male subjects over age 18 years with castration resistant prostate cancer, who were being treated with androgen deprivation therapy (chemical or surgical castration) for at least 6 months, that have serum PSA >2 ng/mL or […] a 25% increase above the nadir after the initiation of androgen deprivation therapy (ADT) at study enrollment. The subjects were maintained on androgen deprivation therapy throughout the study.\nThe dose selected for the study was 2000 mg Compound IV. Four Compound IV tablets, 500 mg (2000 mg dose) were orally administered daily. […] Subjects received 2000 mg of Compound IV daily by mouth until study termination. Dosing was to be continued until their serum PSA had increased at least 25% and 2 ng/mL from the nadir at two successive sample times (approximately 30 days apart) after initiation of treatment with Compound IV. The prostate cancer working group (PCWG) definition of PSA progression was used (serum PSA has increased at least 25% and 2 ng/mL above the nadir after initiation of treatment with Compound IV on two successive sample times).\nAssessments of serum PSA concentration were made at baseline and on Days 15, 30, and 60 (only 1 patient made it this far before study was terminated).\nThe proportion of subjects with a 50% decline from baseline in serum PSA (confirmed by a second PSA assessment at least one week later)."}, "[6]": {"tested_on": "prostate epithelial cancer cells", "experiment": "Proliferation of prostate epithelial cancer cells in vitro", "format": "cell-based"}, "rat ER-α": {"biological_target": "rat ER-α (Rattus norvegicus, UniProt P06211)", "sequence (P06211 whole entry)": "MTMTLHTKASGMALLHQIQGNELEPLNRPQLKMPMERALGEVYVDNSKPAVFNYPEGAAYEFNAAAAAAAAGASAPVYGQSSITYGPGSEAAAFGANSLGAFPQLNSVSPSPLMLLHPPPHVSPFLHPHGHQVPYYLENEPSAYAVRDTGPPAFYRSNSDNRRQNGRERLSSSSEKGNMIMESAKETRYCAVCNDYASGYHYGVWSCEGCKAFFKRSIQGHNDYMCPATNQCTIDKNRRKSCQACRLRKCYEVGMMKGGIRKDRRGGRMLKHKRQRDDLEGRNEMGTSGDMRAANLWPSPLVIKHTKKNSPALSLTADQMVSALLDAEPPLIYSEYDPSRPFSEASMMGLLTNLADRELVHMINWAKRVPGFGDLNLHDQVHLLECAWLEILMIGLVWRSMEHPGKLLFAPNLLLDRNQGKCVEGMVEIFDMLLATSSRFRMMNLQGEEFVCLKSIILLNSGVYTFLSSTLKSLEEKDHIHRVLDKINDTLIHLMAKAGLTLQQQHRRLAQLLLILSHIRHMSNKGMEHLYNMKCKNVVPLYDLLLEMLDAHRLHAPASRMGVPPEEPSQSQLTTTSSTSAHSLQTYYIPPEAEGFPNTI"}}, "note": "Values joined by “and” are separate entries in the source; they are usually repeats but may differ in a detail not shown here. Equal entries are not always repeated. “Also recorded” adds a separate entry of the source.", "data": [{"smiles": "O=C(c1ccc(O)c(F)c1)N(c1ccc(O)cc1)c1ccc(F)cc1", "note": "[Compound IV, 3-fluoro-N-(4-fluorophenyl)-4-hydroxy-N-(4-hydroxyphenyl)benzamide]", "values": [{"measurement": "Fold less potency to stimulate ERβ-mediated transcription compared to estradiol", "setting": "rat ER-β", "value": "~1400", "unit": "fold"}, {"measurement": "Agonist or antagonist activity at PPAR-α", "setting": "PPAR-α", "value": "did not display any agonist or antagonist activity"}, {"measurement": "Agonist or antagonist activity at PPAR-γ", "setting": "PPAR-γ", "value": "did not display any agonist or antagonist activity"}, {"measurement": "Agonist or antagonist activity at RXR-α", "setting": "[1]", "value": "did not display any agonist or antagonist activity"}, {"measurement": "Circulating androgen level after recovery", "setting": "[2]; 30 mg/kg daily oral 7 days, then 18-day drug-free recovery", "value": "1757.7±369.5"}, {"measurement": "Decrease of circulating androgen levels compared to baseline", "setting": "[2]; 30 mg/kg daily oral, 7 days, three monkeys", "value": "up to 47%"}, {"measurement": "Circulating androgen level (mean±SEM)", "setting": "[2]; 30 mg/kg daily oral, Day 2", "value": "997±104"}, {"measurement": "Circulating androgen level (mean±SEM)", "setting": "[2]; 30 mg/kg daily oral, Day 6", "value": "852±136"}, {"measurement": "Effect on hot flashes (tail skin temperature after naloxone)", "setting": "[3]", "value": "attenuated hot flashes"}, {"measurement": "bioavailability", "setting": "[4]", "value": "3 to 12", "unit": "%"}, {"measurement": "Gastrointestinal motility and gastric acidity", "setting": "rats; oral 30 mg/kg in rats", "value": "significant increase"}, {"measurement": "Peristalsis", "setting": "rats; oral 30 to 300 mg/kg in rats", "value": "significant increase"}, {"measurement": "Tolerability after single and repeated oral administration", "setting": "male or female dogs", "value": "well-tolerated"}, {"measurement": "Free T reductions and PSA decreases from baseline", "setting": "[5]; 15 days, men maintained on ADT with LHRH agonists alone", "value": "in all of the men"}, {"measurement": "Effect on serum total T levels", "setting": "[5]; CRPC patients on ADT", "value": "did not further reduce"}, {"measurement": "Reduction in % FreeT", "setting": "[5]; Day 15", "value": "greater than 50%"}, {"measurement": "Percentage of treated patients already on ADT (ITT population) below the free T cutoff of 0.5 pg/ml", "setting": "[5]; 15 days on therapy", "value": 85.7, "unit": "%"}, {"measurement": "Percentage of treated patients already on ADT (ITT population) below the free T cutoff of 0.5 pg/ml", "setting": "[5]; 30 days on therapy", "value": 66.7, "unit": "%"}, {"measurement": "Percentage of treated patients already on ADT (ITT population) below the free T cutoff of 0.5 pg/ml", "setting": "[5]; 60 days on therapy", "value": 100, "unit": "%"}, {"measurement": "Patients with greater than 50% reduction in PSA", "setting": "[5]; after two weeks", "value": "3 of 7"}, {"measurement": "Men that reached free T below 0.5 pg/mL", "setting": "[5]; day 15", "value": 85.7, "unit": "%"}, {"measurement": "Men that reached free T below 0.5 pg/mL", "setting": "[5]; day 30", "value": 66.7, "unit": "%"}, {"measurement": "Men that reached free T below 0.5 pg/mL", "setting": "[5]; day 60", "value": 100, "unit": "%"}, {"measurement": "Subjects with a reduction in serum PSA from baseline to Day 15", "setting": "[5]; seven evaluable subjects", "value": "All seven"}, {"measurement": "Subjects with >50% reduction in serum PSA", "setting": "[5]; subjects with at least 30 days of exposure", "value": "all three and 2 of 3"}, {"measurement": "Proliferation of prostate epithelial cancer cells", "setting": "[6]", "value": "does not increase proliferation; also recorded: did not increase proliferation"}, {"measurement": "Antagonist effects on estradiol-stimulated transcriptional activation", "setting": "rat ER-α; estradiol 1 nM, Compound IV up to 10 μM", "value": "no antagonist effects were observed"}, {"measurement": "Relative selectivity in transactivation potency for ERα over ERβ", "setting": "rat ER-α; normalized to estradiol values", "value": 16, "unit": "fold"}]}]}
